Results reported in patent publication US11426412B2, “Imidazo-pyridine compounds as PAD inhibitors” (JUBILANT EPIPAD LLC, priority 2017, dated 2022).
pIC50: −log10 of the molar value. Counter-ions that a name gives are not always drawn. Like-named read-outs stand apart in the source and are kept apart here.

Biological target: PAD4 (Homo sapiens (Human), UniProt Q9UM07)
Assay: Ammonia release biochemical assay (citrullination)
[1] = read-out: NH3 release biochemical assay PAD4 IC50
[2] = Table 1, class A, read-out: IC50 value, ammonia release biochemical assay

Sequence of PAD4 (Q9UM07 whole entry): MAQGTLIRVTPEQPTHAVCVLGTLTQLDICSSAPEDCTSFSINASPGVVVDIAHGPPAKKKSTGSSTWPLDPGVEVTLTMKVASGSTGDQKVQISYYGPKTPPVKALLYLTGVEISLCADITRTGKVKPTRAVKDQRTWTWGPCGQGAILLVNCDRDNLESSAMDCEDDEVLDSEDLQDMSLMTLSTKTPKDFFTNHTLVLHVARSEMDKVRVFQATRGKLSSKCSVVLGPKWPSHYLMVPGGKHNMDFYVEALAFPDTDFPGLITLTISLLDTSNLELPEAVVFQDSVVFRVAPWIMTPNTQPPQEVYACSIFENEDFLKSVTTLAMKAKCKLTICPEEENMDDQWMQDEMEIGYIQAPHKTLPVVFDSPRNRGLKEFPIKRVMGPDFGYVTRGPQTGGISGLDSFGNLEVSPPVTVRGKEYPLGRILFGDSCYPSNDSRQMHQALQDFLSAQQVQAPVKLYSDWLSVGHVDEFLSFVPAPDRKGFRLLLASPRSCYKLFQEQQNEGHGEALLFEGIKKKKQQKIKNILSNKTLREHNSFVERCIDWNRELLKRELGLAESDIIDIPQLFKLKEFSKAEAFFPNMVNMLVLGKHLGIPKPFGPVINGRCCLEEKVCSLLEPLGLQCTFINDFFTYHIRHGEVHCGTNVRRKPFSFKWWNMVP

SMILES	pIC50 [1]	pIC50 [2]
Cc1c(-c2c(Br)c3ccccc3n2CC2CC2)nc2cc(C(=O)N3CCC[C@@H](N)C3)ccn12 [Compound 1, (R)-(3-Aminopiperidin-1-yl)(2-(3-bromo-1-(cyclopropylmethyl)-1H-indol-2-yl)-3-methylimidazo[1,2-a]pyridin-7-yl)methanone]	< 5.00	
CCn1c(-c2nc3cc(C(=O)N4CCC[C@@H](N)C4)ccn3c2C)c(-c2ccccc2)c2ccccc21 [Compound 5, (R)-(3-Aminopiperidin-1-yl)(2-(1-ethyl-3-phenyl-1H-indol-2-yl)-3-methylimidazo[1,2-a]pyridin-7-yl)methanone]	< 5.00	
CCn1c(-c2nc3cc(C(=O)N4CC[C@@H](N)C4)ccn3c2C)c(-c2ccccc2)c2ccccc21 [Compound 6, (R)-(3-Aminopyrrolidin-1-yl)(2-(1-ethyl-3-phenyl-1H-indol-2-yl)-3-methylimidazo[1,2-a]pyridin-7-yl)methanone]	< 5.00	
CCn1c(-c2nc3cc(C(=O)N4CC[C@@H](N)C4)ccn3c2C)cc2ccccc21 [Compound 7, (R)-(3-Aminopyrrolidin-1-yl)(2-(1-ethyl-1H-indol-2-yl)-3-methylimidazo[1,2-a]pyridin-7-yl)methanone]	< 5.00	
Cc1c(-c2cc3ccccc3n2CC2CC2)nc2cc(C(=O)N3CC[C@@H](N)C3)ccn12 [Compound 8, (R)-(3-Aminopyrrolidin-1-yl)(2-(1-(cyclopropylmethyl)-1H-indol-2-yl)-3-methylimidazo[1,2-a]pyridin-7-yl)methanone]	< 5.00	
Cc1c(-c2cc3ccccc3n2C)nc2cc(C(=O)N3CCC[C@@H](N)C3)ccn12 [Compound 46, (R)-(3-aminopiperidin-1-yl)(3-methyl-2-(1-methyl-1H-indol-2-yl)imidazo[1,2-a]pyridin-7-yl)methanone]	< 5.00	
COCCn1c(-c2nc3cc(C(=O)N4CCC[C@@H](N)C4)ccn3c2C)cc2ccccc21 [Compound 64, (R)-(3-aminopiperidin-1-yl) (2-(1-(2-methoxyethyl)-1H-indol-2-yl)-3-methylimidazo[1,2-a]pyridin-7-yl)methanone]	> 6.00	
COc1ccc2cc(-c3nc4cc(C(=O)N5CCC[C@@H](N)C5)ccn4c3C)n(Cc3ccncc3)c2c1 [Compound 66, (R)-(3-aminopiperidin-1-yl)(2-(6-methoxy-1-(pyridin-4-ylmethyl)-1H-indol-2-yl)-3-methylimidazo[1,2-a]pyridin-7-yl)methanone]	< 5.00	
CCn1c(-c2nc3cc(C(=O)N4CCC[C@@H](N)C4)ccn3c2C)cc2ccc(OC)cc21 [Compound 67, (R)-(3-aminopiperidin-1-yl)(2-(1-ethyl-6-methoxy-1H-indol-2-yl)-3-methylimidazo[1,2-a]pyridin-7-yl)methanone]	> 6.00	
Cc1c(-c2cc3ccc(F)cc3n2Cc2ccncc2)nc2cc(C(=O)N3CCC[C@@H](N)C3)ccn12 [Compound 68, (R)-(3-aminopiperidin-1-yl)(2-(6-fluoro-1-(pyridin-4-ylmethyl)-1H-indol-2-yl)-3-methylimidazo[1,2-a]pyridin-7-yl)methanone]	> 6.00	
Cc1c(-c2cc3ccc(F)cc3n2Cc2cccnc2)nc2cc(C(=O)N3CCC[C@@H](N)C3)ccn12 [Compound 69, (R)-(3-aminopiperidin-1-yl)(2-(6-fluoro-1-(pyridin-3-ylmethyl)-1H-indol-2-yl)-3-methylimidazo[1,2-a]pyridin-7-yl)methanone]	> 6.00	
COc1cccc(Cn2c(-c3nc4cc(C(=O)N5CCC[C@@H](N)C5)ccn4c3C)cc3ccc(F)cc32)c1 [Compound 70, (R)-(3-aminopiperidin-1-yl)(2-(6-fluoro-1-(3-methoxybenzyl)-1H-indol-2-yl)-3-methylimidazo[1,2-a]pyridin-7-yl)methanone]	> 6.00	
COc1ccc(Cn2c(-c3nc4cc(C(=O)N5CCC[C@@H](N)C5)ccn4c3C)cc3ccc(F)cc32)cc1 [Compound 71, (R)-(3-aminopiperidin-1-yl)(2-(6-fluoro-1-(4-methoxybenzyl)-1H-indol-2-yl)-3-methylimidazo[1,2-a]pyridin-7-yl)methanone]	> 6.00	
CCn1c(-c2nc3cc(C(=O)N4CCC[C@@H](N)C4)ccn3c2C)cc2ccc(F)cc21 [Compound 72, (R)-(3-aminopiperidin-1-yl)(2-(1-ethyl-6-fluoro-1H-indol-2-yl)-3-methylimidazo[1,2-a]pyridin-7-yl)methanone]	> 6.00	

Continued, values first:

pIC50 [1]	pIC50 [2]	SMILES
> 6.00	≥ 6.00	CCn1c(-c2nc3cc(C(=O)N4CCC[C@@H](N)C4)ccn3c2C)cc2ccccc21 [Compound 4, (R)-(3-Aminopiperidin-1-yl)(2-(1-ethyl-1H-indol-2-yl)-3-methylimidazo[1,2-a]pyridin-7-yl)methanone]
> 6.00		Cc1c(-c2cc3ccccc3n2Cc2cccc(F)c2)nc2cc(C(=O)N3CCC[C@@H](N)C3)ccn12 [Compound 35, (R)-(3-aminopiperidin-1-yl)(2-(1-(3-fluorobenzyl)-1H-indol-2-yl)-3-methylimidazo[1,2-a]pyridin-7-yl)methanone]
> 6.00		Cc1c(-c2cc3ccccc3n2Cc2ccoc2)nc2cc(C(=O)N3CCC[C@@H](N)C3)ccn12 [Compound 37, (R)-(3-aminopiperidin-1-yl)(2-(1-(furan-3-ylmethyl)-1H-indol-2-yl)-3-methylimidazo[1,2-a]pyridin-7-yl)methanone]
> 6.00	≥ 6.00	Cc1csc(Cn2c(-c3nc4cc(C(=O)N5CCC[C@@H](N)C5)ccn4c3C)cc3ccccc32)n1 [Compound 41, (R)-(3-aminopiperidin-1-yl)(3-methyl-2-(1-((4-methylthiazol-2-yl)methyl)-1H-indol-2-yl)imidazo[1,2-a]pyridin-7-yl)methanone]
> 6.00	≥ 6.00	Cc1c(-c2cc3cccc(Cl)c3n2CC2CC2)nc2cc(C(=O)N3CCC[C@@H](N)C3)ccn12 [Compound 44, (R)-(3-aminopiperidin-1-yl)(2-(7-chloro-1-(cyclopropylmethyl)-1H-indol-2-yl)-3-methylimidazo[1,2-a]pyridin-7-yl)methanone]
> 6.00	≥ 6.00	Cc1c(-c2cc3ccccc3n2Cc2ccc(F)cc2)nc2cc(C(=S)N3CCC[C@@H](N)C3)ccn12 [Compound 45, (R)-(3-aminopiperidin-1-yl)(2-(1-(4-fluorobenzyl)-1H-indol-2-yl)-3-methylimidazo[1,2-a]pyridin-7-yl)methanethione]
> 6.00	≥ 6.00	COc1cccc2cc(-c3nc4cc(C(=O)N5CCC[C@@H](N)C5)ccn4c3C)n(CC3CC3)c12 [Compound 47, (R)-(3-aminopiperidin-1-yl)(2-(1-(cyclopropylmethyl)-7-methoxy-1H-indol-2-yl)-3-methylimidazo[1,2-a]pyridin-7-yl)methanone]
> 6.00	≥ 6.00	Cc1ncc(Cn2c(-c3nc4cc(C(=O)N5CCC[C@@H](N)C5)ccn4c3C)cc3ccccc32)s1 [Compound 49, (R)-(3-aminopiperidin-1-yl)(3-methyl-2-(1-((2-methylthiazol-5-yl)methyl)-1H-indol-2-yl)imidazo[1,2-a]pyridin-7-yl)methanone]
> 6.00		COc1ccc2cc(-c3nc4cc(C(=O)N5CCC[C@@H](N)C5)ccn4c3C)n(Cc3cccnc3)c2c1 [Compound 51, (R)-(3-aminopiperidin-1-yl) (2-(6-methoxy-1-(pyridin-3-ylmethyl)-1H-indol-2-yl)-3-methylimidazo[1,2-a]pyridin-7-yl)methanone]
> 6.00		COc1cccc(Cn2c(-c3nc4cc(C(=O)N5CCC[C@@H](N)C5)ccn4c3C)cc3cc(F)ccc32)c1 [Compound 53, (R)-(3-aminopiperidin-1-yl)(2-(5-fluoro-1-(3-methoxybenzyl)-1H-indol-2-yl)-3-methylimidazo[1,2-a]pyridin-7-yl)methanone]
> 6.00		Cc1c(-c2cc3ccc(F)cc3n2Cc2ccc(F)cc2)nc2cc(C(=O)N3CCC[C@@H](N)C3)ccn12 [Compound 54, (R)-(3-aminopiperidin-1-yl)(2-(6-fluoro-1-(4-fluorobenzyl)-1H-indol-2-yl)-3-methylimidazo[1,2-a]pyridin-7-yl)methanone]
> 6.00		COc1cccc(Cn2c(-c3nc4cc(C(=O)N5CCC[C@@H](N)C5)ccn4c3C)cc3cc(F)c(F)cc32)c1 [Compound 55, (R)-(3-aminopiperidin-1-yl)(2-(5,6-difluoro-1-(3-methoxybenzyl)-1H-indol-2-yl)-3-methylimidazo[1,2-a]pyridin-7-yl)methanone]
> 6.00	≥ 6.00	Cc1c(-c2cc3ccccc3n2Cc2cncnc2)nc2cc(C(=O)N3CCC[C@@H](N)C3)ccn12 [Compound 58, (R)-(3-aminopiperidin-1-yl) (3-methyl-2-(1-(pyrimidin-5-ylmethyl)-1H-indol-2-yl)imidazo[1,2-a]pyridin-7-yl)methanone Trifluoroacetic Acid Salt]
> 6.00		Cc1c(-c2cc3ccccc3n2CC(C)C)nc2cc(C(=O)N3CCC[C@@H](N)C3)ccn12 [Compound 60, (R)-(3-aminopiperidin-1-yl)(2-(1-isobutyl-1H-indol-2-yl)-3-methylimidazo[1,2-a]pyridin-7-yl)methanone]
> 6.00		Cc1c(-c2cc3ccccc3n2CC2CCC2)nc2cc(C(=O)N3CCC[C@@H](N)C3)ccn12 [Compound 61, (R)-(3-aminopiperidin-1-yl)(2-(1-(cyclobutylmethyl)-1H-indol-2-yl)-3-methylimidazo[1,2-a]pyridin-7-yl)methanone]
> 6.00		Cc1c(-c2cc3ccccc3n2Cc2ncccc2F)nc2cc(C(=O)N3CCC[C@@H](N)C3)ccn12 [Compound 62, (R)-(3-aminopiperidin-1-yl)(2-(1-((3-fluoropyridin-2-yl)methyl)-1H-indol-2-yl)-3-methylimidazo[1,2-a]pyridin-7-yl)methanone]
> 6.00		COc1ccc(Cn2c(-c3nc4cc(C(=O)N5CCC[C@@H](N)C5)ccn4c3C)cc3ccccc32)nc1 [Compound 63, (R)-(3-aminopiperidin-1-yl)(2-(1-((5-methoxypyridin-2-yl)methyl)-1H-indol-2-yl)-3-methylimidazo[1,2-a]pyridin-7-yl)methanone]
